Assay results as given in patent US8192962B2, “Processes for detecting toxic substances” (Daikin Industries, Ltd., priority 2001, dated 2012).

Tested on: Genes belonging to other category
Experiment: DNA chip mRNA expression in yeast, genes belonging to other category (Table 9)
Assay type: cell-based, Saccharomyces cerevisiae S288C
Protocol: Yeast (Saccharomyces cerevisiae S288C (α SUC2mal mel gap2 CUP1)) were incubated at 25° C. on YPD medium (yeast extract 1%, polypepton 2%, glucose 2%). One of toxic chemical substances was added to the cells at logarithmic growth phase, and the cells were further incubated for two hours. Cells were cultured without any chemical substance in the same condition, and were used as control. Concentrations of the chemical substances were defined to inhibit the growth of the yeast but not lead to death.
After completion of the incubation, the culture was centrifuged to collect the cells. To the cells, sodium acetate buffer (50 mM sodium acetate, 10 mM EDTA, 1% SDS) was added, and the mixture was shaken at 65° C. for five minutes, followed by returning to room temperature, and obtaining the supernatant, of which the procedures were repeated two times. To the supernatant, ½ amount of a solution of phenol/chloroform was added, and the mixture was centrifuged to give a supernatant, which was added with an equal amount of chloroform, and the mixture was centrifuged to give a supernatant. To the supernatant, an equal amount of isopropanol containing 0.3 M sodium acetate was added, and the mixture was allowed to stand at room temperature for 30 minutes, after which the mixture was centrifuged to give a sediment of the whole RNAs. Seventy % ethanol was added to the sediment, and the mixture was again centrifuged to give a sediment, which was then dried and dissolved in water. mRNA was isolated from the whole RNAs as followings. In view of the fact that a poly A chain is attached to the 3′ terminus of mRNA, a polynucleotide having a poly T structure which was immobilized on the surface of latex beads was used to trap the mRNA, and then the mRNA was washed and eluted with spine column (Oligotex-dT30<Super>mRNA Purification Kit, Takara). Reverse transcription of the mRNA was conducted with a reverse transcriptase (Super Script II Reverse Transcriptase; catalogue No. 18064-014, GibcoBRL) using fluorescence-labeled nucleotides to give cDNAs that were introduced with Cy3-dUTP or Cy5-dUTP during the reverse transcription.
The labeled cDNAs were dissolved in TE buffer (10mM Tris-HCl/1 mM EDTA, pH8.0), and the solution was dropped on the DNA chip containing the whole genes of yeast (DNA Chip Research Inc. Japan) so that the cDNAs were hybridized on the DNA chip at 65° C. for over 12 hours. The fluoresces intensity of the DNA chip was read with a scanner, and the ratio relative to the fluorescence intensity resulting from the absence of chemical substance was estimated as the following, which is shown in Tables 1 to 9: […]

CCCCCCCCCCCCOS(=O)(=O)[O-].[Na+] [(18), sodium lauryl sulfate]
The level of expressed mRNA in the presence of chemical substance/The level of expressed mRNA in the absence of chemical substance (yeast gene YDR392W): 1.2 | The level of expressed mRNA in the presence of chemical substance/The level of expressed mRNA in the absence of chemical substance (yeast gene YDR403W): 1.0 | The level of expressed mRNA in the presence of chemical substance/The level of expressed mRNA in the absence of chemical substance (yeast gene YDR432W): 0.7 | The level of expressed mRNA in the presence of chemical substance/The level of expressed mRNA in the absence of chemical substance (yeast gene YDR481C): 1.4 | The level of expressed mRNA in the presence of chemical substance/The level of expressed mRNA in the absence of chemical substance (yeast gene YDR510W): 1.5 | The level of expressed mRNA in the presence of chemical substance/The level of expressed mRNA in the absence of chemical substance (yeast gene YEL042W): 0.8 | The level of expressed mRNA in the presence of chemical substance/The level of expressed mRNA in the absence of chemical substance (yeast gene YEL066W): 1.1 | The level of expressed mRNA in the presence of chemical substance/The level of expressed mRNA in the absence of chemical substance (yeast gene YER039C): 1.1 | The level of expressed mRNA in the presence of chemical substance/The level of expressed mRNA in the absence of chemical substance (yeast gene YER066W): 1.1 | The level of expressed mRNA in the presence of chemical substance/The level of expressed mRNA in the absence of chemical substance (yeast gene YER107C): 1.2 | The level of expressed mRNA in the presence of chemical substance/The level of expressed mRNA in the absence of chemical substance (yeast gene YER130C): 2.5 | The level of expressed mRNA in the presence of chemical substance/The level of expressed mRNA in the absence of chemical substance (yeast gene YFL022C): 0.8 | The level of expressed mRNA in the presence of chemical substance/The level of expressed mRNA in the absence of chemical substance (yeast gene YFL028C): 1.5 | The level of expressed mRNA in the presence of chemical substance/The level of expressed mRNA in the absence of chemical substance (yeast gene YFL029C): 1.4 | The level of expressed mRNA in the presence of chemical substance/The level of expressed mRNA in the absence of chemical substance (yeast gene YFL043C): 1.2 | The level of expressed mRNA in the presence of chemical substance/The level of expressed mRNA in the absence of chemical substance (yeast gene YFR004W): 1.4 | The level of expressed mRNA in the presence of chemical substance/The level of expressed mRNA in the absence of chemical substance (yeast gene YFR014C): 2.9 | The level of expressed mRNA in the presence of chemical substance/The level of expressed mRNA in the absence of chemical substance (yeast gene YFR050C): 1.7 | The level of expressed mRNA in the presence of chemical substance/The level of expressed mRNA in the absence of chemical substance (yeast gene YGL093W): 1.2 | The level of expressed mRNA in the presence of chemical substance/The level of expressed mRNA in the absence of chemical substance (yeast gene YGL094C): 0.9 | The level of expressed mRNA in the presence of chemical substance/The level of expressed mRNA in the absence of chemical substance (yeast gene YGL141W): 1.2 | The level of expressed mRNA in the presence of chemical substance/The level of expressed mRNA in the absence of chemical substance (yeast gene YGL150C): 0.8 | The level of expressed mRNA in the presence of chemical substance/The level of expressed mRNA in the absence of chemical substance (yeast gene YGL158W): 1.1 | The level of expressed mRNA in the presence of chemical substance/The level of expressed mRNA in the absence of chemical substance (yeast gene YGL166W): 1.9 | The level of expressed mRNA in the presence of chemical substance/The level of expressed mRNA in the absence of chemical substance (yeast gene YGL207W): 0.8 | The level of expressed mRNA in the presence of chemical substance/The level of expressed mRNA in the absence of chemical substance (yeast gene YGL229C): 0.9 | The level of expressed mRNA in the presence of chemical substance/The level of expressed mRNA in the absence of chemical substance (yeast gene YGR036C): 1.1 | The level of expressed mRNA in the presence of chemical substance/The level of expressed mRNA in the absence of chemical substance (yeast gene YGR048W): 1.2 | The level of expressed mRNA in the presence of chemical substance/The level of expressed mRNA in the absence of chemical substance (yeast gene YGR135W): 1.9 | The level of expressed mRNA in the presence of chemical substance/The level of expressed mRNA in the absence of chemical substance (yeast gene YGR136W): 1.8 | The level of expressed mRNA in the presence of chemical substance/The level of expressed mRNA in the absence of chemical substance (yeast gene YGR186W): 1.2 | The level of expressed mRNA in the presence of chemical substance/The level of expressed mRNA in the absence of chemical substance (yeast gene YGR189C): 1.7 | The level of expressed mRNA in the presence of chemical substance/The level of expressed mRNA in the absence of chemical substance (yeast gene YGR213C): 8.5 | The level of expressed mRNA in the presence of chemical substance/The level of expressed mRNA in the absence of chemical substance (yeast gene YGR232W): 1.2 | The level of expressed mRNA in the presence of chemical substance/The level of expressed mRNA in the absence of chemical substance (yeast gene YGR257C): 1.3 | The level of expressed mRNA in the presence of chemical substance/The level of expressed mRNA in the absence of chemical substance (yeast gene YHL024W): 1.4 | The level of expressed mRNA in the presence of chemical substance/The level of expressed mRNA in the absence of chemical substance (yeast gene YHR004C): 1.6 | The level of expressed mRNA in the presence of chemical substance/The level of expressed mRNA in the absence of chemical substance (yeast gene YHR027C): 1.0 | The level of expressed mRNA in the presence of chemical substance/The level of expressed mRNA in the absence of chemical substance (yeast gene YHR071W): 1.0 | The level of expressed mRNA in the presence of chemical substance/The level of expressed mRNA in the absence of chemical substance (yeast gene YHR139C): 1.3 | The level of expressed mRNA in the presence of chemical substance/The level of expressed mRNA in the absence of chemical substance (yeast gene YHR142W): 1.3 | The level of expressed mRNA in the presence of chemical substance/The level of expressed mRNA in the absence of chemical substance (yeast gene YHR163W): 1.2 | The level of expressed mRNA in the presence of chemical substance/The level of expressed mRNA in the absence of chemical substance (yeast gene YIL050W): 1.1 | The level of expressed mRNA in the presence of chemical substance/The level of expressed mRNA in the absence of chemical substance (yeast gene YIL076W): 2.5 | The level of expressed mRNA in the presence of chemical substance/The level of expressed mRNA in the absence of chemical substance (yeast gene YIL123W): 1.0 | The level of expressed mRNA in the presence of chemical substance/The level of expressed mRNA in the absence of chemical substance (yeast gene YIL140W): 1.0 | The level of expressed mRNA in the presence of chemical substance/The level of expressed mRNA in the absence of chemical substance (yeast gene YIL142W): 0.8 | The level of expressed mRNA in the presence of chemical substance/The level of expressed mRNA in the absence of chemical substance (yeast gene YIR039C): 1.1
